Data as given in patent US12497405B2, “Bicyclic heterocycle compounds methods of use thereof for the treatment of herpes viruses” (Merck Sharp & Dohme LLC, priority 2019, dated 2025).

tested on: HSV2; test: Viral qPCR assay, HSV2; assay type: cell-based; conditions: Human alphaherpesvirus 2, 72 h, infected cells, viral genome copies by qPCR normalized to PPIA, read-out: HSV2 Cell EC50
Outline: (§1)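 MRC5, Vero or MeWo cells were infected in suspension and added to compounds in a 10-point, 3-fold dilution series, then incubated ~72 hrs at 37° C. Lysates were proteinase K-treated, and viral genome copies were quantified by TaqMan qPCR against a plasmid standard curve and normalized to PPIA. EC50 came from a 4-parameter fit.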

| Compound | EC50 [nM] |
| --- | --- |
| Cc1nc2cc(-c3cnco3)c(O[C@H]3CCN4C(=O)OC[C@@H]4C3)cc2c(=O)n1Cc1ccc(C#N)cc1 [Example 60] | 40 |
| CC(C)(N)Cc1cc2ccn(Cc3ccc(Cl)cc3)c(=O)c2cc1O[C@H]1CCN2C(=O)OC[C@@H]2C1 [Example 32] | 402 |
| O=C1OC[C@@H]2C[C@@H](Oc3ccc4ncn(Cc5ccc(Cl)cc5)c(=O)c4c3)CCN12 [Example 24] | 342 |
| Cc1nc2cc(-c3cc4n(n3)CCNC4)c(O[C@H]3CCN4C(=O)OC[C@@H]4C3)cc2c(=O)n1Cc1ccc(Cl)cc1 [Example 84] | 102 |
| CC(C)(O)Cc1cc(O[C@H]2CCN3C(=O)OC[C@@H]3C2)cc2c(=O)n(Cc3ccc(Cl)cc3)cnc12 [Example 48] | 645 |
| CC(C)(O)Cc1nc2ncn(Cc3ccc(Cl)cc3)c(=O)c2cc1O[C@H]1CCN2C(=O)OC[C@@H]2C1 [Example 45] | 309 |
| COc1cnc(-c2cc3nc(C)n(Cc4ccc(Cl)cc4)c(=O)c3cc2O[C@H]2CCN3C(=O)OC[C@@H]3C2)nc1 [Example 88] | 225 |
| CC(O)Cc1nc2ccn(Cc3ccc(Cl)cc3)c(=O)c2cc1O[C@H]1CCN2C(=O)OC[C@@H]2C1 (single isomer, unassigned) [Example 33] | 234 |

biological target: varicella zoster virus DNA polymerase (Varicella-zoster virus (strain Dumas) (HHV-3) (Human herpesvirus 3), UniProt P09252); test: VZV polymerase assay (AlphaLISA); assay type: biochemical; conditions: VZV polymerase 0.4 nM, 30 min pre-incubation, 60 minute at 37° C.
Procedure: (§2) Human cytomegalovirus and varicella zoster virus DNA polymerases were expressed via baculovirus vector in SF21 cells and purified. Heterodimeric nucleic acid substrate used in the herpesvirus polymerase reactions were generated by annealing a 59-mer template to a 17-mer digoxigenin-labeled primer. Polymerase (HCMV final concentration of 0.2 nM; VZV final concentration of 0.4 nM) was combined with an inhibitor compound or DMSO in assay buffer (10 mM HEPES, pH 7.5, 25 mM KCl, 25 mM NaCl, 5 mM MgCl2, 5% glycerol, 0.67 mg/ml bovine serum albumin, and 1 mM tris(2-carboxyethyl)phosphine)), and this mixture was pre-incubated for 30 minutes at room temperature in 384-well microtiter plates. The polymerization reaction was initiated by the addition of template/primer substrate (final concentration: 1.6 nM), and dNTPs (final concentration: 24 nM dCTP, 24 nMdGTP, 16 nM dATP, 16 nM dTTP, and 0.8 nM biotin-dUTP). After a 60 minute incubation period at 37° C., the reactions were terminated using quench buffer (25 mM HEPES pH 7.5, 100 mM NaCl, 0.25% Tween-20, 12 mM EDTA, and 1 mg/ml bovine serum albumin). Incorporation of biotinylated UTP was detected with 2.5-5 μg/mL anti-DIG AlphaLISA acceptor beads and 5-10 μg/mL streptavidin AlphaLISA donor beads (PerkinElmer). Compound effects were normalized to the window defined by the controls (DMSO only and pre-quenched wells), and were fit using a 4-parameter algorithm to report an IC50.

| Compound | IC50 [nM] |
| --- | --- |
| Cc1nc2cc(-c3cnco3)c(O[C@H]3CCN4C(=O)OC[C@@H]4C3)cc2c(=O)n1Cc1ccc(C#N)cc1 [Example 60] | 0.44 |
| CC(C)(N)Cc1cc2ccn(Cc3ccc(Cl)cc3)c(=O)c2cc1O[C@H]1CCN2C(=O)OC[C@@H]2C1 [Example 32] | 33 |
| O=C1OC[C@@H]2C[C@@H](Oc3ccc4ncn(Cc5ccc(Cl)cc5)c(=O)c4c3)CCN12 [Example 24] | 35 |
| Cc1nc2cc(-c3cc4n(n3)CCNC4)c(O[C@H]3CCN4C(=O)OC[C@@H]4C3)cc2c(=O)n1Cc1ccc(Cl)cc1 [Example 84] | 0.44 |
| CC(C)(O)Cc1cc(O[C@H]2CCN3C(=O)OC[C@@H]3C2)cc2c(=O)n(Cc3ccc(Cl)cc3)cnc12 [Example 48] | 37 |
| CC(C)(O)Cc1nc2ncn(Cc3ccc(Cl)cc3)c(=O)c2cc1O[C@H]1CCN2C(=O)OC[C@@H]2C1 [Example 45] | 25 |
| COc1cnc(-c2cc3nc(C)n(Cc4ccc(Cl)cc4)c(=O)c3cc2O[C@H]2CCN3C(=O)OC[C@@H]3C2)nc1 [Example 88] | 25 |
| CC(O)Cc1nc2ccn(Cc3ccc(Cl)cc3)c(=O)c2cc1O[C@H]1CCN2C(=O)OC[C@@H]2C1 (single isomer, unassigned) [Example 33] | 13 |

biological target: Human cytomegalovirus DNA polymerase (Human cytomegalovirus (strain AD169) (HHV-5) (Human herpesvirus 5), UniProt P08546); test: CMV polymerase assay (AlphaLISA); assay type: biochemical; conditions: HCMV polymerase 0.2 nM, 30 min pre-incubation, 60 minute at 37° C.
Procedure: as §2

| Compound | IC50 [nM] |
| --- | --- |
| Cc1nc2cc(-c3cnco3)c(O[C@H]3CCN4C(=O)OC[C@@H]4C3)cc2c(=O)n1Cc1ccc(C#N)cc1 [Example 60] | 0.82 |
| CC(C)(N)Cc1cc2ccn(Cc3ccc(Cl)cc3)c(=O)c2cc1O[C@H]1CCN2C(=O)OC[C@@H]2C1 [Example 32] | 15 |
| O=C1OC[C@@H]2C[C@@H](Oc3ccc4ncn(Cc5ccc(Cl)cc5)c(=O)c4c3)CCN12 [Example 24] | 27 |
| Cc1nc2cc(-c3cc4n(n3)CCNC4)c(O[C@H]3CCN4C(=O)OC[C@@H]4C3)cc2c(=O)n1Cc1ccc(Cl)cc1 [Example 84] | 0.44 |
| CC(C)(O)Cc1cc(O[C@H]2CCN3C(=O)OC[C@@H]3C2)cc2c(=O)n(Cc3ccc(Cl)cc3)cnc12 [Example 48] | 42 |
| CC(C)(O)Cc1nc2ncn(Cc3ccc(Cl)cc3)c(=O)c2cc1O[C@H]1CCN2C(=O)OC[C@@H]2C1 [Example 45] | 11 |
| COc1cnc(-c2cc3nc(C)n(Cc4ccc(Cl)cc4)c(=O)c3cc2O[C@H]2CCN3C(=O)OC[C@@H]3C2)nc1 [Example 88] | 28 |
| CC(O)Cc1nc2ccn(Cc3ccc(Cl)cc3)c(=O)c2cc1O[C@H]1CCN2C(=O)OC[C@@H]2C1 (single isomer, unassigned) [Example 33] | 7.4 |

tested on: CMV; test: Viral qPCR assay, CMV; assay type: cell-based; conditions: Human betaherpesvirus 5, 72 h, infected cells, viral genome copies by qPCR normalized to PPIA, read-out: CMV Cell EC50
Outline: as §1

| Compound | EC50 [nM] |
| --- | --- |
| Cc1nc2cc(-c3cnco3)c(O[C@H]3CCN4C(=O)OC[C@@H]4C3)cc2c(=O)n1Cc1ccc(C#N)cc1 [Example 60] | 53 |
| CC(C)(N)Cc1cc2ccn(Cc3ccc(Cl)cc3)c(=O)c2cc1O[C@H]1CCN2C(=O)OC[C@@H]2C1 [Example 32] | 392 |
| O=C1OC[C@@H]2C[C@@H](Oc3ccc4ncn(Cc5ccc(Cl)cc5)c(=O)c4c3)CCN12 [Example 24] | 216 |
| Cc1nc2cc(-c3cc4n(n3)CCNC4)c(O[C@H]3CCN4C(=O)OC[C@@H]4C3)cc2c(=O)n1Cc1ccc(Cl)cc1 [Example 84] | 177 |
| CC(C)(O)Cc1cc(O[C@H]2CCN3C(=O)OC[C@@H]3C2)cc2c(=O)n(Cc3ccc(Cl)cc3)cnc12 [Example 48] | 273 |
| CC(C)(O)Cc1nc2ncn(Cc3ccc(Cl)cc3)c(=O)c2cc1O[C@H]1CCN2C(=O)OC[C@@H]2C1 [Example 45] | 269 |
| COc1cnc(-c2cc3nc(C)n(Cc4ccc(Cl)cc4)c(=O)c3cc2O[C@H]2CCN3C(=O)OC[C@@H]3C2)nc1 [Example 88] | 718 |
| CC(O)Cc1nc2ccn(Cc3ccc(Cl)cc3)c(=O)c2cc1O[C@H]1CCN2C(=O)OC[C@@H]2C1 (single isomer, unassigned) [Example 33] | 156 |

tested on: HSV1; test: Viral qPCR assay, HSV1; assay type: cell-based; conditions: Human alphaherpesvirus 1, 72 h, infected cells, viral genome copies by qPCR normalized to PPIA, read-out: HSV1 Cell EC50
Outline: as §1

| Compound | EC50 [nM] |
| --- | --- |
| Cc1nc2cc(-c3cnco3)c(O[C@H]3CCN4C(=O)OC[C@@H]4C3)cc2c(=O)n1Cc1ccc(C#N)cc1 [Example 60] | 84 |
| CC(C)(N)Cc1cc2ccn(Cc3ccc(Cl)cc3)c(=O)c2cc1O[C@H]1CCN2C(=O)OC[C@@H]2C1 [Example 32] | 772 |
| O=C1OC[C@@H]2C[C@@H](Oc3ccc4ncn(Cc5ccc(Cl)cc5)c(=O)c4c3)CCN12 [Example 24] | 501 |
| Cc1nc2cc(-c3cc4n(n3)CCNC4)c(O[C@H]3CCN4C(=O)OC[C@@H]4C3)cc2c(=O)n1Cc1ccc(Cl)cc1 [Example 84] | 113 |
| CC(C)(O)Cc1cc(O[C@H]2CCN3C(=O)OC[C@@H]3C2)cc2c(=O)n(Cc3ccc(Cl)cc3)cnc12 [Example 48] | 701 |
| CC(C)(O)Cc1nc2ncn(Cc3ccc(Cl)cc3)c(=O)c2cc1O[C@H]1CCN2C(=O)OC[C@@H]2C1 [Example 45] | 268 |
| COc1cnc(-c2cc3nc(C)n(Cc4ccc(Cl)cc4)c(=O)c3cc2O[C@H]2CCN3C(=O)OC[C@@H]3C2)nc1 [Example 88] | 543 |
| CC(O)Cc1nc2ccn(Cc3ccc(Cl)cc3)c(=O)c2cc1O[C@H]1CCN2C(=O)OC[C@@H]2C1 (single isomer, unassigned) [Example 33] | 266 |
